Source: US7824868B2, “Formation of superfibronectin by BBK32 and uses therefor” (priority 2007, dated 2010)

B1: BBK32(21-354): Recombinant intact BBK32 protein, residues 21-354, including the C-terminal globular domain (SEQ ID NO: 5) (protein)
chain: DLFIRYEMKEESPGLFDKGNSILETSEESIKKPIKKPMNKKGKGKIARKKGKSKVSRKEPYIHSLKRDSANKSNFLQKNVILEEESLKTELLKEQSETRKEKIQKQQDEYKGMTQGSLNSLSGESGELEEPIESNEIDLTIDSDLRPKSSLQGIAGSNSISYTDEIEEEDYDQYYLDEYDEEDEEEIRLSNRYQSYLEGVKYNVDSAIQTITKIYNTYTLFSTKLTQMYSTRLDNFAKAKAKEEAAKFTKEDLEKNFKTLLNYIQVSVKTAANFVYINDTHAKRKLENIEAEIKTLIAKKIEQSNLYEAYKAIVTSILLMRDSLKEVQGIIDKNGVWY
modifications: recombinant peptide from residues 21-354 of BBK32

What was measured:
[1] = tested on: purified plasma fibronectin; experiment: Fibronectin aggregation assay (O.D.600); assay type: biochemical, human; details: 1 μM purified plasma fibronectin, absorbance at 600 nm
purified plasma fibronectin, sequence (P02751 32-1265 limits assumed): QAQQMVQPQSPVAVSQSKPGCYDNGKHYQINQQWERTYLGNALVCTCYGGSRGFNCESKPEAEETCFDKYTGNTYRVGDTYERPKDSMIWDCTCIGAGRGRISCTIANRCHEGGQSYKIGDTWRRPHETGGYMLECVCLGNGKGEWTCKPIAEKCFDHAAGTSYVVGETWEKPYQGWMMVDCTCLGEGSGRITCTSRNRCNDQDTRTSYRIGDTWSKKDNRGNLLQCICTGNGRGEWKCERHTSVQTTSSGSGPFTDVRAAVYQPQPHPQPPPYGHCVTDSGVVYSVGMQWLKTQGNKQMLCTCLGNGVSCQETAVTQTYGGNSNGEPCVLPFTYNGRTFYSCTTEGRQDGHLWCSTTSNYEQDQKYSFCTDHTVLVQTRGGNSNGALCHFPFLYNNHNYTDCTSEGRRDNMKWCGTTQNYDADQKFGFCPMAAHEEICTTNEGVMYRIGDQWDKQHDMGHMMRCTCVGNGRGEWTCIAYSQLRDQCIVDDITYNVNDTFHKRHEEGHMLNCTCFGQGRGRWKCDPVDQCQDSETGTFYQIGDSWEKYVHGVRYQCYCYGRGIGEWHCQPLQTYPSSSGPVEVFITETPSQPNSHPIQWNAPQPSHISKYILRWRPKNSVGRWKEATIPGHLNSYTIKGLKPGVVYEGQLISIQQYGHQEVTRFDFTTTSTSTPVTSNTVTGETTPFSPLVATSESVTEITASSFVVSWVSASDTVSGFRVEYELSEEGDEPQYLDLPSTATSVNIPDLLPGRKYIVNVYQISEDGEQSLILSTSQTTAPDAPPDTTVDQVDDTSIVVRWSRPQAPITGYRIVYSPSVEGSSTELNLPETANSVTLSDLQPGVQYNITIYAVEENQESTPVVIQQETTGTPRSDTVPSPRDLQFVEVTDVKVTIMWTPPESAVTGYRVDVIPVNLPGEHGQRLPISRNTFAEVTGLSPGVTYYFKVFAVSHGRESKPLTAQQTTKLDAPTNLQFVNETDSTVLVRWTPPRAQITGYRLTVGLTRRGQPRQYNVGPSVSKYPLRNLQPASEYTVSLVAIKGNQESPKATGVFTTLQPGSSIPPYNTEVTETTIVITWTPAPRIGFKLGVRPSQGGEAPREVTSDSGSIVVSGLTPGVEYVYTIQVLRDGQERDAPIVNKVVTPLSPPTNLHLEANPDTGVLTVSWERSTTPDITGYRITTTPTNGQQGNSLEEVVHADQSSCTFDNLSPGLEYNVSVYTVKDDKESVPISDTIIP
Procedure: BBK32, FnbpA peptide D3, Anastellin, and purified plasma fibronectin were centrifuged at 14,000 rpm for 15 minutes and then filtered through 0.22 μm PES syringe filters (Nalgene, Rochester, N.Y.). Following filtration, BBK32, FnbpA peptide D3, and Anastellin were titrated into 1 μM purified plasma fibronectin in TBS. After the addition of each aliquot, the fibronectin/protein mixture was carefully mixed five times with a 200 μl pipette and optical density at 600 nm was measured using a BioPhotometer (Eppendorf, New York, N.Y.) after 10 seconds.

plasma fibronectin = experiment: Proteolytic (thermolysin) digestion of fibronectin aggregates; assay type: biochemical, human; details: 20 μM inducer, 1 μM plasma fibronectin, 5 μg/ml thermolysin 2 hours, SDS-PAGE
plasma fibronectin, sequence (P02751 32-1265 limits assumed): as above
Procedure: The sequences obtained, SSPVVID (SEQ ID No. 12), AVEENQE (SEQ ID No. 13), and ITETIP (SEQ ID No. 14), were located to the end of ^13F3, middle of ^3F3, and the start of ^1F3, respectively for both BBK32/fibronectin and Anastellin/fibronectin. Pre-stained protein standard (New England Biolabs).
BBK32, Anastellin, and plasma fibronectin were dialyzed into thermolysin digestion buffer (25 mM Tris, 0.5 mM EDTA, pH 8, 50 mM NaCl, and 2.5 mM CaCl2). 20 μM BBK32 or 20 μM Anastellin was added to 1 μM plasma fibronectin. Solutions were mixed and aggregates were allowed to form for one hour at room temperature. After one hour incubation, 5 μg/ml thermolysin (Sigma) was added to the BBK32-sFn, the Anastellin-sFn, and to plasma fibronectin. The solutions were incubated at room temperature with end-over-end mixing for 2 hours. Digestion was stopped after two hours with the addition of EDTA to a final concentration of 5 mM. Samples were then run on 4-20% gradient SDS-PAGE gels under non-reducing conditions. […] Excess stain was removed with 40% methanol and bands that were present in BBK32-sFn and Anastellin-sFn, but not in plasma fibronectin lanes, were excised and analyzed by N-terminal sequencing using Edman degradation (Protein Sequencing Division, Tufts University Core Facility, Boston, Mass.).

[2] = tested on: fibronectin matrix of normal human dermal fibroblasts (NHDFs); experiment: Effects on fibronectin matrix assembled by normal human dermal fibroblasts (immunostaining); assay type: cell-based; details: 5 μM, 20 hours
Procedure: Cells were treated for 20 hours and then fixed. […] Treated cells were incubated for 20 hours and probed with Alexa Fluor 488-anti-fibronectin, monoclonal antibody IST-1, and monoclonal antibody IST-9. Images were taken using LSM 510 Confocal Microscope. Bar=10 μm.
4×10^4 adult normal human dermal fibroblasts (NHDFs) (Cambrex, East Rutherford, N.J.) were seeded onto glass coverslips in 24 well Costar tissue culture plates in Fibroblast growth media-2 (FGM-2) (Cambrex). Cells were allowed to grow for 48 hours and then BBK32, Anastellin, or FnbpA peptide D3 was added to a final concentration of 5 μM in FGM-2. Treated cells were incubated for 20 hours at 37° C., 5% CO2. After incubation, cells were washed with Dulbecco's PBS (DPBS) (Gibco, Invitrogen, Carlsbad, Calif.) and fixed with 2% paraformaldehyde for 30 minutes at room temperature. Following washing with DPBS, cells were blocked with 1% BSA for one hour at room temperature. Cells were then probed with Alexa Fluor 488-anti-fibronectin, Texas Red anti-His, monoclonal antibodies IST-1 (plasma and cellular fibronectin) and IST-9 (cellular fibronectin) (abcam, Cambridge, UK) or combinations of antibodies at a dilution of 1:3000 for one hour at room temperature. Following extensive washing with DPBS, appropriate fluorescently labeled secondary antibodies (Alexa Fluor 594-goat anti-mouse) (Invitrogen, Carlsbad, Calif.) were added at a dilution of 1:3000 and incubated for one hour at room temperature. After incubation, cells were washed extensively with DPBS and coverslips were mounted using Gel/Mount (biømeda, Foster City, Calif.) onto glass slides and images were taken using a LSM 510 Confocal Microscope (Zeiss).

[3] = tested on: human umbilical vein endothelial cells (HUVECs); experiment: Endothelial cell proliferation assay; assay type: cell-based; details: 72 hours, cell counts
Procedure: Cells were seeded onto tissue culture plates in full media and allowed to adhere for two hours. […] Cells were then incubated for 72 hours at 37° C., 5% CO2. After 72 hours, wells were washed, trypsinized, and counted (three counts/well, three wells/dose) using a hemacytometer.
1×10^4 human umbilical vein endothelial cells (HUVECs) (Cambrex) were seeded into Costar 24 well tissue culture plates in endothelial growth media-2 (EGM-2) (Cambrex) and allowed to adhere for two hours. After two hours, BBK32, Anastellin, and FnbpA peptide D3 were added in a dose dependent manner (triplicate) to the wells suspended in EGM-2. Cells were allowed to incubate for 72 hours at 37° C., 5% CO2. After 72 hours, wells were washed with PBS and cells were trypsinized with 0.5% trypsin/EDTA (Cambrex). Trypsinized cells were collected in microcentrifuge tubes and trypsin/EDTA was neutralized with EGM-2. Cells were counted from each well (three counts/well, three wells/dose) using a hemacytometer.

[4] = tested on: fibronectin matrix assembly; details: cited from earlier work
^1F3 fibronectin module = target: T1, ^1F3 fibronectin module (Homo sapiens, UniProt P02751); experiment: ELISA-type binding assay, immobilized 1F3 module
T1 construct: His-tag (N); made in house
T1 sequence (P02751 608-700): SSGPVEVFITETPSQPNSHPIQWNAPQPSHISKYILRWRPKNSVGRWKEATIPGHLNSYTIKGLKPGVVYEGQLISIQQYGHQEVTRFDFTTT
Procedure: Binding to ^1F3 (FIG. 1A), ^1-2F3 (FIG. 1B), and ^3F3 (FIG. 1C) was assessed using ELISA-type assays. F3 modules were immobilized in microtiter wells and blocked with Ovalbumin.
Binding of BBK32 to F3 modules was tested by coating 1 μg of recombinant ^1F3, ^1-2F3, and ^3F3 modules in 50 μl of 50 mM Tris-HCl, 150 mM NaCl, pH 7.5 (TBS) per well in Immulon 4HBX microtiter plates (Dynatech Laboratories, Chantilly, Va.) and incubating overnight at 4° C. The next day, the wells were washed with 200 μl TBS, 0.05% Tween 20, pH 7.4 (TBST) and blocked with 200 μl TBST containing 2% ovalbumin (Sigma, St. Louis, Mo.) for one hour at room temperature. […] Plates were incubated for one hour at room temperature. After washing with TBST, primary antibodies (rabbit IgG anti-BBK32 or rabbit IgG anti-FnbpA) were added to each well at a 0.48 μg/ml. Plates were incubated for one hour at room temperature and then were washed again with TBST.
Following washing, a 1:3000 dilution of HRP-conjugated goat-anti-rabbit antibodies (BioRad, Hercules, Calif.) was added to each well. Plates were incubated for one hour at room temperature and then washed with TBST. […] Absorbance was measured at 450 nm using a Thermo Max microplate reader (Molecular Devices, Sunnyvale, Calif.). Apparent Kds were calculated by assessing maximal half-binding (Y=Bmax·X/(Kd+X)).

[5] = Stability of recombinant protein; assay type: physicochemical

| Molecule | induction of plasma fibronectin aggregation (in words) [1] | thermolysin fragment profile of induced fibronectin aggregates (plasma fibronectin) | co-localization with fibronectin in the extracellular matrix [2] | immunostaining with monoclonal antibody IST 9 (EDA epitope of cellular fibronectin) [2] | effect on proliferation of endothelial cells (in words) [3] | concentration at which matrix assembly is blocked ([4]; high concentrations, 16 hour incubation causes disappearance of pre-existing matrix) | concentration at which fibronectin matrix assembly is promoted ([4]; low concentrations) | binding to the ^1F3 module (in words) (^1F3 fibronectin module) | stability of the recombinant protein [5] |
| --- | --- | --- | --- | --- | --- | --- | --- | --- | --- |
| Anastellin: Recombinant form of the C-terminal two-thirds of fibronectin ^1F3 with C-terminal His-tag; known inducer of superfibronectin | induced fibronectin aggregation | very similar fragment profiles | co-localize with fibronectin | markedly reduced immunostaining with IST 9 | concentration dependent manner | above 20 μM | less than 5 μM |  |  |
| FnbpA peptide D3: S. aureus fibronectin-binding peptide D3 of MSCRAMM FnbpA, synthesized and purified by HPLC; used as control (GFNKHTEIIEEDTNKDKPSYQFGGHNSVDFEEDTLPK) | not the D3 protein induced fibronectin aggregation |  | co-localize with fibronectin | no different from the staining observed for the no treatment control | only marginally affected the proliferation of cells |  |  | did not to bind the ^1F3 module |  |
| B1 | induced aggregation of fibronectin at lower concentrations than BBK32(21-205) |  |  |  |  |  |  |  | unstable and susceptible to degradation |
